The values below are quoted from earlier work in patent publication US20220249506A1, “Meloxicam-Containing Granulated Product” (SSP Co., Ltd., priority 2019, published 2022).

For the data set the following is noted: low pH range of pH 5.0 or less.

Take `Cc1cnc(NC(=O)C2=C(O)c3ccccc3S(=O)(=O)N2C)s1` [meloxicam]: the Solubility in water result is reported as “almost insoluble in water”.
